Where two headings read alike, the source gives them in different places.
Key:
Get3 (S. cerevisiae) [1] = molecular target: Get3 (S. cerevisiae) (Saccharomyces cerevisiae, UniProt Q12154, D57N); test: NADH-coupled microplate ATPase assay; type: biochemical; details: Tris pH 7.5, 5 mM MgCl2, 20 mM NaCl, 30 °C, 2 μM Get3, 0.02% n-dodecyl-β-D-maltopyranoside
Get3 (S. cerevisiae) [2] = molecular target: T1, Get3 (S. cerevisiae) (Saccharomyces cerevisiae, UniProt Q12154); test: NADH-coupled microplate ATPase assay; type: biochemical; details: Tris pH 7.5, 5 mM MgCl2, 20 mM NaCl, 30 °C, 2 μM Get3, 0.02% n-dodecyl-β-D-maltopyranoside
T1 sequence (Q12154 1-354): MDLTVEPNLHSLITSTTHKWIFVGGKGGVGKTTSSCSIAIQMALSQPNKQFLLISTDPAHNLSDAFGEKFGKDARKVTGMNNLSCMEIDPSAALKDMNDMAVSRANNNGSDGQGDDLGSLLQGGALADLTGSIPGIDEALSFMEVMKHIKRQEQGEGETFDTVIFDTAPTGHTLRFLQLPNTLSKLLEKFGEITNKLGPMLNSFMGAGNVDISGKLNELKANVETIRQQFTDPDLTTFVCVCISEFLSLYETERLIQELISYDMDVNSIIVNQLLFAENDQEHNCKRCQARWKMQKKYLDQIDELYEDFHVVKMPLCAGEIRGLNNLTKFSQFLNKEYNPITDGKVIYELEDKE

crystal structure [3] = molecular target: the molecule itself; test: crystal structure
crystal structure [4] = molecular target: the molecule itself; test: crystal structure; remark: listed apart in the source

Chain of Get3 (S. cerevisiae) (Saccharomyces cerevisiae, UniProt Q12154, D57N) (Q12154 whole entry D57N): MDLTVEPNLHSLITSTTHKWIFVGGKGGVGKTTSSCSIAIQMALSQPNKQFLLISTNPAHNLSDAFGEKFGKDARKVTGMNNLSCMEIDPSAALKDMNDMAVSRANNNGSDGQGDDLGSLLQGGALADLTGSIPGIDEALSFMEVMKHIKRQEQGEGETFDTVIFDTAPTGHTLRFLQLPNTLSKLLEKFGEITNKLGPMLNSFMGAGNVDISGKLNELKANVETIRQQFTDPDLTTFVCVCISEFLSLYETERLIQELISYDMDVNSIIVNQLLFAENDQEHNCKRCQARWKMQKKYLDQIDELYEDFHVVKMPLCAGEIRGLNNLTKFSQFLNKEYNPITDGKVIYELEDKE

Nc1ncnc2c1ncn2[C@@H]1O[C@H](COP(=O)(O)OP(=O)(O)OP(=O)(O)O)[C@@H](O)[C@H]1O [ATP]
NADH-coupled microplate ATPase assay (Get3 (S. cerevisiae) [1]): an Asp57Asn mutant is defective for ATP hydrolysis | apparent Km,ATP (Get3 (S. cerevisiae) [2]): used to calculate Vmax and apparent Km,ATP values

B1: Saccharomyces cerevisiae Get3 (wild type) (natural protein, S. cerevisiae, UniProt Q12154 1-354, looked up)
chain: MDLTVEPNLHSLITSTTHKWIFVGGKGGVGKTTSSCSIAIQMALSQPNKQFLLISTDPAHNLSDAFGEKFGKDARKVTGMNNLSCMEIDPSAALKDMNDMAVSRANNNGSDGQGDDLGSLLQGGALADLTGSIPGIDEALSFMEVMKHIKRQEQGEGETFDTVIFDTAPTGHTLRFLQLPNTLSKLLEKFGEITNKLGPMLNSFMGAGNVDISGKLNELKANVETIRQQFTDPDLTTFVCVCISEFLSLYETERLIQELISYDMDVNSIIVNQLLFAENDQEHNCKRCQARWKMQKKYLDQIDELYEDFHVVKMPLCAGEIRGLNNLTKFSQFLNKEYNPITDGKVIYELEDKE
stoichiometry N (crystal structure [3]): 2

B2: Schizosaccharomyces pombe Get3 (natural protein, S. pombe, UniProt Q9P7F8 1-329, looked up)
chain: MSFDPLPGTLENLLEQTSLKWIFVGGKGGVGKTTTSCSLAIQMSKVRSSVLLISTDPAHNLSDAFGTKFGKDARKVPGFDNLSAMEIDPNLSIQEMTEQADQQNPNNPLSGMMQDLAFTIPGIDEALAFAEILKQIKSMEFDCVIFDTAPTGHTLRFLNFPTVLEKALGKLGGLSSRFGPMINQMGSIMGVNANEQDLFGKMESMRANISEVNKQFKNPDLTTFVCVCISEFLSLYETERMIQELTSYEIDTHNIVVNQLLLDPNTTCPQCMARRKMQQKYLAQIEELYEDFHVVKVPQVPAEVRGTEALKSFSEMLVKPYVYPTSGKE
stoichiometry N (crystal structure [4]): 2
